Here are results for seven compounds from patent publication US4061649A, “Clavulanic acid sulphates” (Beecham Group Limited, priority 1975, dated 1977).

Data set [1] has as its system Enterobacter cloacae. In words: MIC / synergism, microtitre method (Example 42). It counts as cell-based. As to conditions: compound alone; inoculum 0.5 × 10^-2.
The next data set has as its system Escherichia coli B 11. Description: MIC / synergism, microtitre method (Example 42). The conditions noted are these: compound alone; inoculum 0.5 × 10^-2. It counts as cell-based.
For data set [2], the system named is strains of Klebsiella aerogenes A. Description: growth inhibition, penicillins with and without clavulanic acid or ester. It counts as cell-based.
The next data set deals with Staphylococcus aureus. Description: MIC / synergism, microtitre method (Example 42). It counts as cell-based.
The subject of data set [3] is Staphylococcus aureus(Russell). In words: MIC / synergism, microtitre method (Example 42). It counts as cell-based.
The test system of data set [4] is β-lactamase producing strains of Escherichia coli, Klebsiella aerognes and Staphylococcus aureus. In words: synergism with ampicillin. It counts as cell-based.
For data set [5], the system named is β-lactamase producing strains of Proteus mirabilis and Staphylococcus aureus. Description: synergism with cephaloridine. Format: cell-based.
Data set [6] deals with strains of Staphylococcus aureus. Description: growth inhibition. It counts as cell-based.
Data set [7] deals with T1, Escherischia coli JT4 β-lactamase (Escherichia coli, UniProt P62593).
T1 construct: host or cells: Escherichia coli JT4
T1 sequence (P62593 24-286 limits assumed): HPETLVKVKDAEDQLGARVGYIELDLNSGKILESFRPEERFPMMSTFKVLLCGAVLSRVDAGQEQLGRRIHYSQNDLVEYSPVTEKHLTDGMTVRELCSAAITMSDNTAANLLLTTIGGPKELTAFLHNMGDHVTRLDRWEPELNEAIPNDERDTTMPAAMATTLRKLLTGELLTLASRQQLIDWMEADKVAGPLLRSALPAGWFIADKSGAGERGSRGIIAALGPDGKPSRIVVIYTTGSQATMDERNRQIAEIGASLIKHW
Description: β-lactamase I50, method of Belgian Pat. No. 827926. It counts as biochemical. As to the method:
(§1) The I50 in μg/ml of this compound against several β-lactamaseswas determined using the method described in Belgian Pat. No. 827926 and the results are as follows: […]

The target of data set [8] is T2, Pseudomonas Dalgleish β-lactamase (Pseudomonas aeruginosa, UniProt P16897).
T2 construct: host or cells: Pseudomonas (aeruginosa) Dalgleish
T2 sequence (P16897 18-288): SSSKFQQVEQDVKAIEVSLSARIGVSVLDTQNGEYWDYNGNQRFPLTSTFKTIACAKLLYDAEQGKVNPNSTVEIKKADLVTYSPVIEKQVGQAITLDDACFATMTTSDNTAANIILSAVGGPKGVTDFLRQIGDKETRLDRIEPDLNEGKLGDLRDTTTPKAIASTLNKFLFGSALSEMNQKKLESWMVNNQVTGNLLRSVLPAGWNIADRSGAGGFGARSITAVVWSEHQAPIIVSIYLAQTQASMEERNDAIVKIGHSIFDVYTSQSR
Description: β-lactamase I50, method of Belgian Pat. No. 827926. It counts as biochemical. As to the method: as §1

The subject of another data set is Proteus vulgaris W090. In words: MIC, microtitre method (Example 30). The conditions noted are these: approximate MIC; inoculum final dilution 0.5 × 10^-4.
The next data set has as its system Staph.aureus Russell. Description: MIC, method of Example 30 with 1/100 dilution of overnight broth (Example 46). The conditions noted are these: heavy inocula (1/100 of overnight broth); no unit in table (Example 30: μg/ml).
Another data set deals with Pseudomonas aeruginosa A. In words: MIC, microtitre method (Example 30). The conditions noted are these: approximate MIC; inoculum final dilution 0.5 × 10^-4.
For the next data set, the system named is Bacillus subtilis. Description: MIC, microtitre method (Example 30). As to conditions: approximate MIC; inoculum final dilution 0.5 × 10^-4.
The test system of a further data set is Proteus mirabilis 0977. Description: MIC, microtitre method (Example 30). The conditions noted are these: approximate MIC; inoculum final dilution 0.5 × 10^-4.
Another data set has as its system Salmonella typhimurium. Description: MIC, microtitre method (Example 30). The conditions noted are these: approximate MIC; inoculum final dilution 0.5 × 10^-4.
In the next data set the test system is Klebsiella oxytocum. In words: MIC, microtitre method (Example 30). As to conditions: approximate MIC; inoculum final dilution 0.5 × 10^-4.
For a further data set, the system named is Acinetobacter anitratus. Description: MIC, microtitre method (Example 30). The conditions noted are these: approximate MIC; inoculum final dilution 0.5 × 10^-4.
The next data set concerns Klebsiella aerogenes. Description: MIC, microtitre method (Example 30). As to conditions: approximate MIC; inoculum final dilution 0.5 × 10^-4.
Another data set deals with Providentia stuartii. In words: MIC, microtitre method (Example 30). As to conditions: approximate MIC; inoculum final dilution 0.5 × 10^-4.
Data set [9] can be described thus: blood and tissue levels in female mice. It counts as in vivo. The conditions noted are these: oral administration of 100 mg/kg.
In a further data set the test system is Staph.aureus Oxford. In words: MIC, method of Example 30 with 1/100 dilution of overnight broth (Example 46). As to conditions: heavy inocula (1/100 of overnight broth); no unit in table (Example 30: μg/ml).
In a further data set the test system is Streptococcus faecalis. In words: MIC, microtitre method (Example 30). The conditions noted are these: approximate MIC; inoculum final dilution 0.5 × 10^-4.
Another data set relates to Bacillus subtilis A. Description: MIC, method of Example 30 with 1/100 dilution of overnight broth (Example 46). As to conditions: heavy inocula (1/100 of overnight broth); no unit in table (Example 30: μg/ml).
The test system of the next data set is Proteus mirabilis 899. It counts as cell-based.
Data set [10] deals with Enterobacter aerogenes T 624. In words: MIC, microtitre method (Example 30). As to conditions: approximate MIC; inoculum final dilution 0.5 × 10^-4.
Description: (§2) The cultures were incubated overnight and the points of bacterial growth recorded next morning by observing the turbidity of the culture.
For data set [11], the system named is Streptococcus pyogenes CN 10. Description: MIC, microtitre method (Example 30). As to conditions: approximate MIC; inoculum final dilution 0.5 × 10^-4.
Description: as §2
The subject of data set [12] is Escherichia coli NCTC 10418. Description: MIC, microtitre method (Example 30). The conditions noted are these: approximate MIC; inoculum final dilution 0.5 × 10^-4.
Description: as §2
For another data set, the system named is Shigella sonnei. Description: MIC, microtitre method (Example 30). As to conditions: approximate MIC; inoculum final dilution 0.5 × 10^-4.
The test system of data set [13] is Enterobacter cloacae. Description: MIC, microtitre method (Example 30). The conditions noted are these: approximate MIC; inoculum final dilution 0.5 × 10^-4.
Description: as §2
Data set [14] relates to Serratia marcescens. In words: MIC, microtitre method (Example 30). As to conditions: approximate MIC; inoculum final dilution 0.5 × 10^-4.
Description: as §2
Data set [15] deals with Serratia marcescens. Description: MIC / synergism, microtitre method (Example 42). It counts as cell-based. As to conditions: compound alone; inoculum 0.5 × 10^-2.
The next data set has as its system bacteria. In words: tests for antibacterial activity in broth (Example 32). It counts as cell-based. The conditions noted are these: possibly due to clavulanic acid liberated by slow hydrolysis.
[16] abbreviates: in presence of 5μg/ml clavulanic acid sodium salt.

pIC50: −log10 of the molar value. Where a name gives a salt, the structure may show the parent alone.

Description for Acinetobacter anitratus: as §2
Description for Bacillus subtilis A: as §2
Description for Klebsiella oxytocum: as §2
Description for Proteus mirabilis 0977: as §2
Description for Proteus vulgaris W090: as §2
Description for Providentia stuartii: as §2
Description for Pseudomonas aeruginosa A: as §2
Description for Salmonella typhimurium: as §2
Description for Shigella sonnei: as §2
Description for Staph.aureus Oxford: as §2
Description for Staph.aureus Russell: as §2
Description for Streptococcus faecalis: as §2

With `CC1(C)S[C@@H]2[C@H](NC(=O)[C@H](N)c3ccccc3)C(=O)N2[C@H]1C(=O)O` [Ampicillin, ampicillin, reference compound], the “Minimum Inhibitory Concentrations” value was 250 µg/mL in the data set with Enterobacter cloacae [1] and above 500 µg/mL with Escherichia coli B 11.

Consider `CC1(C)S[C@@H]2[C@H](NC(=O)Cc3ccccc3)C(=O)N2[C@H]1C(=O)O` [Benzylpenicillin, benzylpenicillin, reference compound], for which, in [2] (when 5 μg/ml. of clavulanic acid is also present), the “concentration by which growth is inhibited” value was “less than 12.5 μg/ml”.

Consider `O=C(Cc1cccs1)N[C@@H]1C(=O)N2C(C(=O)[O-])=C(C[n+]3ccccc3)CS[C@H]12` [Cephaloridine, cephaloridine], for which the “Minimum Inhibitory Concentrations” value is 3.7 µg/mL with Staphylococcus aureus (setting [16]); above 0.03 µg/mL in data set [3] (setting [16]); “Same value” in [3] (synergist (clavulanic acid sodium salt) added at 1 μg/ml. instead of 5 μg/ml., compared with the value at 5 μg/ml).

On to `O=C(O)[C@H]1/C(=C/CO)O[C@@H]2CC(=O)N21` [clavulanic acid, Z-(2R,5R)-3-(β-hydroxyethylidene)-7-oxo-4-oxa-1-azabicyclo[3,2,0]heptane-2-carboxylic acid], for which the “synergism of the antibacterial effect of ampicillin” value in data set [4] is reported as “able to synergyze the antibacterial effect of ampicillin”. The “synergism of the antibacterial effect of cephaloridine” value in [5] is on record as “able to synergyze the antibacterial effect of cephaloridine”. In addition, the MIC in [2] (Klebsiella aerogenes, compound alone, read-out: concentration by which growth is not inhibited) is above 10 µg/mL. Also, the inhibition of growth result in [6] is reported as “able to inhibit the growth”.

For the compound `O=C(OCc1ccccc1)[C@H]1/C(=C/COS(=O)(=O)O)O[C@@H]2CC(=O)N21` [Example 50, Benzyl Clavulanate -- O -- sulphonate trimethylamine salt], the pIC50 in data set [7] is 5.04; in data set [8] it was 4.94.

Consider `O=C(O)[C@H]1/C(=C/CO)O[C@@H]2CC(=O)N21` [clavulanic acid sodium salt, 3-(β-hydroxyethylidine)-7-oxo-4-oxa-1-azabicyclo [3,2,0]heptane-2-carboxylic acid sodium salt], for which the “Minimum Inhibitory Concentration” value worked out at 31 µg/mL in the data set with Proteus vulgaris W090; 500 µg/mL with Pseudomonas aeruginosa A; 62 µg/mL with Bacillus subtilis; 62 µg/mL in the data set with Proteus mirabilis 0977; 31 µg/mL with Salmonella typhimurium; 62 µg/mL with Klebsiella oxytocum. The “Minimum Inhibitory Concentration” value in the data set on Acinetobacter anitratus was 125 µg/mL; in the data set on Klebsiella aerogenes, 31 to 62 µg/mL; in the data set with Providentia stuartii, 125 µg/mL; in the data set on Streptococcus faecalis it was above 500 µg/mL; in data set [10], 31 µg/mL; in data set [11], 125 µg/mL. Besides, the “Minimum Inhibitory Concentration” value stood at 31 µg/mL in data set [12], 62 µg/mL in the data set with Shigella sonnei, 62 µg/mL in the data set with Enterobacter cloacae [13] and 125 µg/mL in the data set on Serratia marcescens [14]. The figures for the MIC in the data set on Staph.aureus Russell, with Staph.aureus Oxford and in the data set with Bacillus subtilis A were 15, 15 and 62, respectively. Besides, the “Minimum Inhibitory Concentrations” value was 62 µg/mL with Staphylococcus aureus (compound alone, inoculum 0.5 × 10^-2); 62 µg/mL in the data set on Enterobacter cloacae [1]; below 500 µg/mL in the data set on Proteus mirabilis 899; 125 µg/mL in the data set on Serratia marcescens [15]. In addition, the “levels of clavulanic acid” value in [9] was “useful levels”.

With `COC(=O)[C@H]1/C(=C/CO)O[C@@H]2CC(=O)N21` [clavulanic acid methyl ester], the “antibacterial activity in broth” value in the data set on bacteria is reported as “broad spectrum activity but of a lower order than shown by clavulanic acid”.

Broadly, the pIC50 is the IC50 on a negative log10 scale, so that one unit is a factor of ten. The low end stands for a high IC50, the high end for a low IC50.
